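Exposure lasted 48 hours, with cells grown in 96-well plates and compounds tested at five concentrations. Abbreviation: GI50, concentration required for 50% inhibition of growth. Definition used: TGI = concentration required for complete inhibition of growth.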
Legend:
Test in all cases: growth of human tumour cells (NCI), 48 h
OVCAR-3 ovarian = system: OVCAR-3 ovarian
DU-145 prostate = system: DU-145 prostate
NCI-H460 lung = system: NCI-H460 lung
SF-295 CNS = system: SF-295 CNS
HT29 colon = system: HT29 colon
BT-549 breast = system: BT-549 breast
OVCAR-8 ovarian = system: OVCAR-8 ovarian
RXF 393 renal = system: RXF 393 renal
SK-MEL-28 melanoma = system: SK-MEL-28 melanoma
PC-3 prostate = system: PC-3 prostate
LOX IMVI melanoma = system: LOX IMVI melanoma
NCI/ADR-RES ovarian = system: NCI/ADR-RES ovarian
KM12 colon = system: KM12 colon
M14 melanoma = system: M14 melanoma
CAKI-1 renal = system: CAKI-1 renal
SK-MEL-2 melanoma = system: SK-MEL-2 melanoma
NCI-H226 lung = system: NCI-H226 lung
U251 CNS = system: U251 CNS
SNB-19 CNS = system: SNB-19 CNS
OVCAR-4 ovarian = system: OVCAR-4 ovarian
HOP-92 NSCLC = system: HOP-92 NSCLC
HS 578T breast = system: HS 578T breast
ACHN renal = system: ACHN renal
786-0 renal = system: 786-0 renal
HCT-116 colon = system: HCT-116 colon
HCC-2998 colon = system: HCC-2998 colon
UACC-257 melanoma = system: UACC-257 melanoma
A549 NSCLC = system: A549 NSCLC
T-47D breast = system: T-47D breast
NCI-H522 lung = system: NCI-H522 lung
MCF7 breast = system: MCF7 breast
SW-620 colon = system: SW-620 colon
MALME-3M melanoma = system: MALME-3M melanoma
SR leukemia = system: SR leukemia
IGROV1 ovarian = system: IGROV1 ovarian
HCT-15 colon = system: HCT-15 colon
A498 renal = system: A498 renal
SK-OV-3 ovarian = system: SK-OV-3 ovarian
SN12C renal = system: SN12C renal
SF-268 CNS = system: SF-268 CNS
MOLT-4 leukemia = system: MOLT-4 leukemia
HOP-62 NSCLC = system: HOP-62 NSCLC
CCRF-CEM leukemia = system: CCRF-CEM leukemia
K-562 leukemia = system: K-562 leukemia
UO-31 renal = system: UO-31 renal
HL-60(TB) leukemia = system: HL-60(TB) leukemia
COLO 205 colon = system: COLO 205 colon
MDA-MB-435 = system: MDA-MB-435
TK-10 renal = system: TK-10 renal
MDA-MB-231 breast = system: MDA-MB-231 breast
UACC-62 melanoma = system: UACC-62 melanoma
SK-MEL-5 melanoma = system: SK-MEL-5 melanoma
SNB-75 CNS = system: SNB-75 CNS
NCI-H23 lung = system: NCI-H23 lung
OVCAR-5 ovarian = system: OVCAR-5 ovarian
SF-539 CNS = system: SF-539 CNS
RPMI-8226 leukemia = system: RPMI-8226 leukemia

## O=CN/N=C/c1ccc(Cl)c([N+](=O)[O-])c1
OVCAR-3 ovarian
  GI50: 0.555 µM
  TGI: 20.7 µM
DU-145 prostate
  GI50: 0.401 µM
  TGI: > 100 µM
NCI-H460 lung
  GI50: 0.0427 µM
  TGI: 14.8 µM
SF-295 CNS
  GI50: 0.623 µM
  TGI: > 79.9 µM
HT29 colon
  GI50: 0.0457 µM
  TGI: 14.4 µM
BT-549 breast
  GI50: 3.31 µM
  TGI: 20 µM
OVCAR-8 ovarian
  GI50: 0.567 µM
  TGI: > 100 µM
RXF 393 renal
  GI50: 0.399 µM
  TGI: > 100 µM
SK-MEL-28 melanoma
  GI50: 0.899 µM
  TGI: 24 µM
PC-3 prostate
  GI50: 0.0249 µM
  TGI: 13.2 µM
LOX IMVI melanoma
  GI50: 0.111 µM
  TGI: 13.7 µM
NCI/ADR-RES ovarian
  GI50: > 100 µM
  TGI: > 100 µM
KM12 colon
  GI50: 0.228 µM
  TGI: 15.1 µM
M14 melanoma
  GI50: 0.513 µM
  TGI: > 46.5 µM
CAKI-1 renal
  GI50: 4.04 µM
  TGI: > 100 µM
SK-MEL-2 melanoma
  GI50: 5.43 µM
  TGI: 22.6 µM
NCI-H226 lung
  GI50: 0.725 µM
  TGI: > 100 µM
U251 CNS
  GI50: 0.0617 µM
  TGI: 25.8 µM
SNB-19 CNS
  GI50: 0.518 µM
  TGI: 46.6 µM
OVCAR-4 ovarian
  GI50: 0.684 µM
  TGI: 60.6 µM
HOP-92 NSCLC
  GI50: 1.24 µM
  TGI: 21.1 µM
HS 578T breast
  GI50: 9.41 µM
  TGI: 40.7 µM
ACHN renal
  GI50: 5.17 µM
  TGI: > 100 µM
786-0 renal
  GI50: 0.544 µM
  TGI: > 100 µM
HCT-116 colon
  GI50: 0.0536 µM
  TGI: > 100 µM
HCC-2998 colon
  GI50: 0.37 µM
  TGI: 19.6 µM
UACC-257 melanoma
  GI50: 0.618 µM
  TGI: 27.4 µM
A549 NSCLC
  GI50: 0.337 µM
  TGI: > 100 µM
T-47D breast
  GI50: 2.92 µM
  TGI: 51.7 µM
NCI-H522 lung
  GI50: 0.451 µM
  TGI: 19.9 µM
MCF7 breast
  GI50: 0.351 µM
  TGI: 58.6 µM
SW-620 colon
  GI50: 0.0596 µM
  TGI: > 100 µM
MALME-3M melanoma
  GI50: 3.19 µM
  TGI: 33 µM
SR leukemia
  GI50: 0.126 µM
  TGI: 22.6 µM
IGROV1 ovarian
  GI50: 0.0728 µM
  TGI: 21.9 µM
HCT-15 colon
  GI50: 4.14 µM
  TGI: > 100 µM
A498 renal
  GI50: 2.14 µM
  TGI: 90.5 µM
SK-OV-3 ovarian
  GI50: 7.33 µM
  TGI: > 100 µM
SN12C renal
  GI50: 0.503 µM
  TGI: 21.9 µM
SF-268 CNS
  GI50: 0.172 µM
  TGI: 18.4 µM
MOLT-4 leukemia
  GI50: 0.577 µM
  TGI: 46.8 µM
HOP-62 NSCLC
  GI50: 1.47 µM
  TGI: 49.7 µM
CCRF-CEM leukemia
  GI50: 0.243 µM
  TGI: 72.6 µM
K-562 leukemia
  GI50: 0.197 µM
  TGI: > 100 µM
UO-31 renal
  GI50: 54.1 µM
  TGI: > 100 µM
HL-60(TB) leukemia
  GI50: 0.125 µM
  TGI: 18.4 µM
COLO 205 colon
  GI50: 0.11 µM
  TGI: 15.4 µM
MDA-MB-435
  GI50: 0.0611 µM
  TGI: 18.6 µM
TK-10 renal
  GI50: 2.4 µM
  TGI: 71.3 µM
MDA-MB-231 breast
  GI50: 1.54 µM
  TGI: 27.3 µM
UACC-62 melanoma
  GI50: 0.327 µM
  TGI: 14.6 µM
SK-MEL-5 melanoma
  GI50: 0.402 µM
  TGI: 3.7 µM
SNB-75 CNS
  GI50: 0.787 µM
  TGI: 31.5 µM
NCI-H23 lung
  GI50: 0.396 µM
  TGI: 48.1 µM
OVCAR-5 ovarian
  GI50: 0.189 µM
  TGI: > 100 µM
SF-539 CNS
  GI50: 0.309 µM
  TGI: 13.7 µM
RPMI-8226 leukemia
  GI50: 0.439 µM
  TGI: 17.4 µM

From PubChem BioAssay (NCI)
